This experiment addresses human mGlu4 receptor (Homo sapiens (Human), UniProt Q14833). Briefly: Ca2+ mobilization in vitro assay on recombinant human mGlu4 expressed in HEK293 cells (PAM). The format is cell-based. The settings on record: for Emax: HEK293, maximal response in % of maximal stimulatory effect of saturating L-AP4, read-out: Eff. (%); for EC50: HEK293 cells, human mGlu4, in presence of EC20 of L-AP4, read-out: EC50 (nM) mGlu4PAM. A digest of the protocol:
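HEK293 cells stably expressing human mGlu4 at low level, Fluo-4AM loaded; compound (11 half-log dilutions) pre-incubated 10–30 min at 37 °C, then L-AP4 added at EC20 (determined daily). Peak fluorescence minus basal, normalized to saturating L-AP4; EC50, Hill slope and % Emax from four-parameter fit.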

human mGlu4 receptor, sequence (Q14833 33-912): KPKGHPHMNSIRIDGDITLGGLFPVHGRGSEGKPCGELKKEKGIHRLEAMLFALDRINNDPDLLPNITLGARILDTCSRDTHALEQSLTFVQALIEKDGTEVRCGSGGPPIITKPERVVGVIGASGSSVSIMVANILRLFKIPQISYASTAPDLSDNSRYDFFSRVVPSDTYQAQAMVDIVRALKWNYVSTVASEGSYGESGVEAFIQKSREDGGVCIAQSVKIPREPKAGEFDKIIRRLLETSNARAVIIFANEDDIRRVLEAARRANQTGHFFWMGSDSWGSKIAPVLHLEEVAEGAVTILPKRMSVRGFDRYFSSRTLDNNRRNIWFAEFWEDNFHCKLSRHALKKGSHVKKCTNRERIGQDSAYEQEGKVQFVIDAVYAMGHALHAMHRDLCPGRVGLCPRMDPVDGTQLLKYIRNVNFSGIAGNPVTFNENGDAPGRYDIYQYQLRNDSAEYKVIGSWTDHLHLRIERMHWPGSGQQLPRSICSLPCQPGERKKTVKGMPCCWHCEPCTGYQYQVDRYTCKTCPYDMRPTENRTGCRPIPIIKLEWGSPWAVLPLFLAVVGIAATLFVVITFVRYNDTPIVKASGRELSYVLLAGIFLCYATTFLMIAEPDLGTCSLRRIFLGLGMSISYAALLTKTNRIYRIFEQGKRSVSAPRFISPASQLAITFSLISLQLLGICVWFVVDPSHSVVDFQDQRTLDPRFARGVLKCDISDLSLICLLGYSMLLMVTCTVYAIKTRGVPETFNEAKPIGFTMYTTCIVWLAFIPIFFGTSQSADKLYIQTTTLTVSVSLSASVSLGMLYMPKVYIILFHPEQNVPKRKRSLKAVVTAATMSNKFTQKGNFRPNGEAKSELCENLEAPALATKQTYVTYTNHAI

For the compound `C[C@@]12CC(=O)N(c3c(F)cc(C#Cc4ccccc4)cc3F)C(=O)N1CCN(c1ccnnc1)C2=O` [Example 50, (9aS)-7-[2,6-difluoro-4-(2-phenylethynyl)phenyl]-9a-methyl-2-pyridazin-4-yl-4,9-dihydro-3H-pyrazino[1,2-c]pyrimidine-1,6,8-trione], the Emax amounted to 133% and the concentration giving a half-maximal response (EC50) turned out to be 74 nM.
With `Cc1nc(N2CCN3C(=O)N(c4c(F)cc(C#Cc5ccccc5)cc4F)C(=O)C[C@@]3(C)C2=O)cn1CC(F)(F)F` [Example 61, (9aS)-7-[2,6-difluoro-4-(2-phenylethynyl)phenyl]-9a-methyl-2-[2-methyl-1-(2,2,2-trifluoroethyl)imidazol-4-yl]-4,9-dihydro-3H-pyrazino[1,2-c]pyrimidine-1,6,8-trione], the Emax turned out to be 172% and the concentration giving a half-maximal response (EC50) was 272 nM.
The matching figures for `Cn1ccc(N2CCN3C(=O)N(c4c(F)cc(C#Cc5ccccc5)cc4F)C(=O)C[C@@]3(C)C2=O)n1` [Example 63, (9aS)-7-[2,6-difluoro-4-(2-phenylethynyl)phenyl]-9a-methyl-2-(1-methylpyrazol-3-yl)-4,9-dihydro-3H-pyrazino[1,2-c]pyrimidine-1,6,8-trione]: 136% and 165 nM.
Take `Cn1nccc1N1CCN2C(=O)N(c3c(F)cc(C#Cc4ccccc4)cc3F)C(=O)C[C@@]2(C)C1=O` [Example 65, (9aS)-7-[2,6-difluoro-4-(2-phenylethynyl)phenyl]-9a-methyl-2-(2-methylpyrazol-3-yl)-4,9-dihydro-3H-pyrazino[1,2-c]pyrimidine-1,6,8-trione]: the Emax stood at 92% and the concentration giving a half-maximal response (EC50) amounted to 92 nM.
In the case of `Cn1cc(N2CCN3C(=O)N(c4c(F)cc(C#Cc5ccccc5)cc4F)C(=O)C[C@@]3(C)C2=O)cn1` [Example 68, (9aS)-7-[2,6-difluoro-4-(2-phenylethynyl)phenyl]-9a-methyl-2-(1-methylpyrazol-4-yl)-4,9-dihydro-3H-pyrazino[1,2-c]pyrimidine-1,6,8-trione], the Emax worked out at 135% and the EC50 came out at 90 nM.
With `CCn1cc(N2CCN3C(=O)N(c4c(F)cc(C#Cc5ccccc5)cc4F)C(=O)C[C@@]3(C)C2=O)cn1` [Example 69, (9aS)-7-[2,6-difluoro-4-(2-phenylethynyl)phenyl]-2-(1-ethylpyrazol-4-yl)-9a-methyl-4,9-dihydro-3H-pyrazino[1,2-c]pyrimidine-1,6,8-trione], the Emax came out at 184% and the concentration for a half-maximal effect (EC50) was 151 nM.
The like results for `CC(C)n1cc(N2CCN3C(=O)N(c4c(F)cc(C#Cc5ccccc5)cc4F)C(=O)C[C@@]3(C)C2=O)cn1` [Example 70, (9aS)-7-[2,6-difluoro-4-(2-phenylethynyl)phenyl]-2-(1-isopropylpyrazol-4-yl)-9a-methyl-4,9-dihydro-3H-pyrazino[1,2-c]pyrimidine-1,6,8-trione] were, in that order, 150% and 139 nM.
Take `C[C@@]12CC(=O)N(c3c(F)cc(C#Cc4ccccc4)cc3F)C(=O)N1CCN(c1cn[nH]c1)C2=O` [Example 71, (9aS)-7-[2,6-difluoro-4-(2-phenylethynyl)phenyl]-9a-methyl-2-(1H-pyrazol-4-yl)-4,9-dihydro-3H-pyrazino[1,2-c]pyrimidine-1,6,8-trione]: the Emax amounted to 182% and the EC50 was determined as 101 nM.
In the case of `COCCCn1cc(N2CCN3C(=O)N(c4c(F)cc(C#Cc5ccccc5)cc4F)C(=O)C[C@@]3(C)C2=O)cn1` [Example 72, (9aS)-7-[2,6-difluoro-4-(2-phenylethynyl)phenyl]-2-[1-(3-methoxypropyl)pyrazol-4-yl]-9a-methyl-4,9-dihydro-3H-pyrazino[1,2-c]pyrimidine-1,6,8-trione], the Emax came out at 149% and the EC50 was 122 nM.
As for `Cn1cnc(N2CCN3C(=O)N(c4c(F)cc(C#Cc5ccccc5)cc4F)C(=O)C[C@@]3(C)C2=O)n1` [Example 73, (9aS)-7-[2,6-difluoro-4-(2-phenylethynyl)phenyl]-9a-methyl-2-(1-methyl-1,2,4-triazol-3-yl)-4,9-dihydro-3H-pyrazino[1,2-c]pyrimidine-1,6,8-trione], the Emax was determined as 138% and the EC50 was 244 nM.
Consider `Cn1cc(N2CCN3C(=O)N(c4c(F)cc(C#Cc5ccccc5)cc4Cl)C(=O)C[C@@]3(C)C2=O)cn1` [Example 78, (9aS)-7-[2-chloro-6-fluoro-4-(2-phenylethynyl)phenyl]-9a-methyl-2-(1-methylpyrazol-4-yl)-4,9-dihydro-3H-pyrazino[1,2-c]pyrimidine-1,6,8-trione], for which the Emax amounted to 117% and the concentration for a half-maximal effect (EC50) was determined as 75 nM.
The matching figures for `COCCN1CCN2C(=O)N(c3c(F)cc(C#Cc4ccccc4)cc3F)C(=O)C[C@@]2(C)C1=O` [Example 79, (9aS)-7-[2,6-difluoro-4-(2-phenylethynyl)phenyl]-2-(2-methoxyethyl)-9a-methyl-4,9-dihydro-3H-pyrazino[1,2-c]pyrimidine-1,6,8-trione]: 122% and 137 nM.
As for `COCCCN1CCN2C(=O)N(c3c(F)cc(C#Cc4ccccc4)cc3F)C(=O)C[C@@]2(C)C1=O` [Example 80, (9aS)-7-[2,6-difluoro-4-(2-phenylethynyl)phenyl]-2-(3-methoxypropyl)-9a-methyl-4,9-dihydro-3H-pyrazino[1,2-c]pyrimidine-1,6,8-trione], the Emax was 132% and the 50% effective concentration (EC50) is 135 nM.
The like results for `C[C@@]12CC(=O)N(c3c(F)cc(C#Cc4ccccc4)cc3F)C(=O)N1CCN(CC(F)(F)F)C2=O` [Example 81, (9aS)-7-[2,6-difluoro-4-(2-phenylethynyl)phenyl]-9a-methyl-2-(2,2,2-trifluoroethyl)-4,9-dihydro-3H-pyrazino[1,2-c]pyrimidine-1,6,8-trione] were, in that order, 172% and 112 nM.
The like results for `CCOC(=O)CCCN1CCN2C(=O)N(c3c(F)cc(C#Cc4ccccc4)cc3F)C(=O)C[C@@]2(C)C1=O` [Example 82, Ethyl 4-[(9aS)-7-[2,6-difluoro-4-(2-phenylethynyl)phenyl]-9a-methyl-1,6,8-trioxo-4,9-dihydro-3H-pyrazino[1,2-c]pyrimidin-2-yl]butanoate] were, in that order, 134% and 201 nM.
The matching figures for `C[C@@]12CC(=O)N(c3c(F)cc(C#Cc4ccccc4)cc3F)C(=O)N1CCN(Cc1ccccc1F)C2=O` [Example 89, (9aS)-7-[2,6-difluoro-4-(2-phenylethynyl)phenyl]-2-[(2-fluorophenyl)methyl]-9a-methyl-4,9-dihydro-3H-pyrazino[1,2-c]pyrimidine-1,6,8-trione]: 98% and 149 nM.
Consider `C[C@@]12CC(=O)N(c3c(F)cc(C#Cc4ccccc4)cc3F)C(=O)N1CCN(Cc1cccc(F)c1)C2=O` [Example 90, (9aS)-7-[2,6-difluoro-4-(2-phenylethynyl)phenyl]-2-[(3-fluorophenyl)methyl]-9a-methyl-4,9-dihydro-3H-pyrazino[1,2-c]pyrimidine-1,6,8-trione], for which the Emax was determined as 109% and the EC50 came to 187 nM.
As for `C[C@@]12CC(=O)N(c3c(F)cc(C#Cc4ccccc4)cc3F)C(=O)N1CCN(Cc1ccc(F)cc1)C2=O` [Example 91, (9aS)-7-[2,6-difluoro-4-(2-phenylethynyl)phenyl]-2-[(4-fluorophenyl)methyl]-9a-methyl-4,9-dihydro-3H-pyrazino[1,2-c]pyrimidine-1,6,8-trione], the Emax amounted to 101% and the EC50 stood at 147 nM.
For `Cn1nccc1CN1CCN2C(=O)N(c3c(F)cc(C#Cc4ccccc4)cc3F)C(=O)C[C@@]2(C)C1=O` [Example 97, (9aS)-7-[2,6-difluoro-4-(2-phenylethynyl)phenyl]-9a-methyl-2-[(2-methylpyrazol-3-yl)methyl]-4,9-dihydro-3H-pyrazino[1,2-c]pyrimidine-1,6,8-trione], the Emax is 128% and the EC50 was 76 nM.
For the compound `C[C@@]12CC(=O)N(c3c(F)cc(C#Cc4ccccc4)cc3F)C(=O)N1CCN(CCn1ccnc1)C2=O` [Example 98, (9aS)-7-[2,6-difluoro-4-(2-phenylethynyl)phenyl]-2-(2-imidazol-1-ylethyl)-9a-methyl-4,9-dihydro-3H-pyrazino[1,2-c]pyrimidine-1,6,8-trione], the Emax was 135% and the EC50 worked out at 283 nM.
With `Cc1nccn1CCN1CCN2C(=O)N(c3c(F)cc(C#Cc4ccccc4)cc3F)C(=O)C[C@@]2(C)C1=O` [Example 99, (9aS)-7-[2,6-difluoro-4-(2-phenylethynyl)phenyl]-9a-methyl-2-[2-(2-methylimidazol-1-yl)ethyl]-4,9-dihydro-3H-pyrazino[1,2-c]pyrimidine-1,6,8-trione], the Emax is 146% and the EC50 was found to be 282 nM.
As for `Cn1nccc1CCN1CCN2C(=O)N(c3c(F)cc(C#Cc4ccccc4)cc3F)C(=O)C[C@@]2(C)C1=O` [Example 100, (9aS)-7-[2,6-difluoro-4-(2-phenylethynyl)phenyl]-9a-methyl-2-[2-(2-methylpyrazol-3-yl)ethyl]-4,9-dihydro-3H-pyrazino[1,2-c]pyrimidine-1,6,8-trione], the Emax came to 123% and the EC50 is 219 nM.
For the compound `Cn1cc(CCN2CCN3C(=O)N(c4c(F)cc(C#Cc5ccccc5)cc4F)C(=O)C[C@@]3(C)C2=O)cn1` [Example 101, (9aS)-7-[2,6-difluoro-4-(2-phenylethynyl)phenyl]-9a-methyl-2-[2-(1-methylpyrazol-4-yl)ethyl]-4,9-dihydro-3H-pyrazino[1,2-c]pyrimidine-1,6,8-trione], the Emax came out at 129% and the concentration for a half-maximal effect (EC50) turned out to be 125 nM.
The like results for `COC[C@@]12CC(=O)N(c3c(F)cc(C#Cc4ccccc4)cc3F)C(=O)N1CCN(c1cccnc1)C2=O` [Example 103, (9aR)-7-[2,6-difluoro-4-(2-phenylethynyl)phenyl]-9a-(methoxymethyl)-2-(3-pyridyl)-4,9-dihydro-3H-pyrazino[1,2-c]pyrimidine-1,6,8-trione] were, in that order, 118% and 169 nM.

The values are drawn from US10011607B2, “Ethynyl derivatives” (Hoffmann-La Roche Inc., priority 2015, dated 2018).
